Several values for one entry are separate records, joined by “and”; a condition that tells them apart may be missing. Equal values may be shown once. Marks after values point to notes of the source that are not given here.
What was measured:
[1] = Twice weekly intravenous administration to obese patients for 26 days: body weight; type: in vivo, human
Experimental: (§1) The compound was intravenously administered to each patient of a cohort (except for a placebo cohort) twice weekly for 26 days. Each of patients in the three non-placebo cohorts received either 0.1 mg/m^2 (cohort 1); 0.3 mg/m^2 (cohort 2); or 0.9 mg/m^2 (cohort 3) doses of the compound at the time of administration. The trial was conducted under the appropriate government and medical supervision.
Table 1 summarizes body weight determination of the 9 patients in the 0.9 mg/m^2 cohort on the day of the first dose and prior to a second dose administered three or four days later.
(§2) FIG. 1 depicts the body weight change (loss) as a percent before each administration of the twice weekly dose for the 0.9 mg/m^2 cohort. FIG. 2 depicts the Visual Analog Scale reports of hunger decline about 50% following successive biweekly dose administration for the 0.9 mg/m^2 cohort.
All of the subjects of the trial described in Example 1 received doses ranging from 1.8 to 2.2 mg with each administration (given twice weekly). However, weight change was not strictly associated with dose delivered. Instead, response was strongly associated with dose administered per unit excess body weight, as compared to weight change associated with dose delivered per unit body weight.

[2] = Visual Analog Scale of hunger in obese patients, twice weekly dosing; type: in vivo, human; conditions: successive twice weekly doses, 0.9 mg/m^2 cohort
Experimental: FIG. 2 depicts visual analogue scale of hunger decline by approximately 50% with body weight change (percent) with twice weekly dosing off 0.1 mg/m^2, 0.3 mg/m^2, and 0.9 mg/m^2 (approximately 1.8 to 2.1 mg) of 6-O-(4-dimethylaminoethoxy)cinnamoyl fumagillol in human patients. Values are means (n=6 per dose level) of changes in fasted Visual Analog Scale scores for each visit day vs. Day 1 for population; p values derived from 2-way ANOVA with Bonferroni post-test comparisons (*, p<0.05; **, p<0.01 vs. placebo).
as §1, §2

[3] = human, in vivo
Experimental: as §1
There was a significant correlation between weight loss of patients and maintained exposure of 0.02 ng/mL of the drug above the level of quantitation of the assay 24 hours after dosing, as shown in FIG. 4 (circled data point is exposure of one poor responder below the level of quantitation of assay). The PK profile at day 26 is representative of steady state (see FIG. 5).

adiponectin = assay: Adiponectin levels in the serum of patients undergoing the trial; type: in vivo, human; conditions: with treatment
Experimental: Levels of adiponectin in the serum of patients undergoing the trial were also measured.

Sprague-Dawley male rats = assay: Testis toxicity study, subcutaneous administration daily or every third day for 4 weeks; type: in vivo, rat
Experimental: A testis toxicity study was performed using daily subcutaneous administration or every other day (every third day) subcutaneous administration in rats. […] Additionally, equivalent total exposure using a 3 mg/kg dose administered every third day was compared as well.
64 Sprague-Dawley male rats within ±20% of mean body weight at initiation of dosing were used for the study. Vehicle control or Compound was administered once daily or every 3rd day for 4 weeks, at a volume of 5 mL/kg, as follows, with groups 1-4 for toxicity and groups 5-8 for toxicokinetic studies.
Upon completion of the study, complete necropsy examinations are performed, and the seminal vesicle, testes, and other organs are weighed at terminal necropsy. Terminal body weights are determined just prior to necropsy for assessment of organ weight changes.

[4] = Injection site tolerability; type: in vivo; conditions: doses up to 6 mg
[5] = average of 9 patients, 0.9 mg/m^2 cohort, first dose to before second dose
[6] = individual subject, 0.9 mg/m^2 cohort, first dose to before second dose three or four days later
[7] = rat, s.c., 4 weeks, 1 mg/kg daily
[8] = rat, s.c., 4 weeks, 1 mg/kg every 3rd day
[9] = rat, s.c., 4 weeks, 3 mg/kg every 3rd day

CO[C@@H]1[C@H](OC(=O)/C=C/c2ccc(OCCN(C)C)cc2)CC[C@]2(CO2)[C@H]1[C@@]1(C)O[C@@H]1CC=C(C)C.O=C(O)C(=O)O [6-O-(4-dimethylaminoethoxy)cinnamoyl fumagillol oxalate]
efficacy (weight loss) ([1]; 0.1 and 0.3 mg/m^2 twice weekly): Lack of efficacy
dose with which maximum efficacy is obtained ([1]; administered biweekly): ~20 µg/kg
doses at which weight loss efficacy is obtained ([1]; administered twice weekly): ≥ 20 µg/kg
dose at which weight loss plateaus ([1]; administered twice weekly (~1.8 mg dose)): 0.9 mg/m^2
weight loss at follow up check at day 36 ([1]; after twice weekly regimen over 26 days): substantially sustained
Weight Change (%), Average [1, 5]: −0.7%
Weight Change (kg), Average [1, 5]: -0.7 kg
Ending weight (kg), Average ([1]; average of 9 patients, 0.9 mg/m^2 cohort, prior to second dose): 103.9 kg
Weight Change [1, 6]: 0 kg and −0.5 kg and −0.7 kg and 0.2 kg and −0.6 kg and −1.1 kg (2×) and −0.9 kg and −1.9 kg
Weight Change (%) [1, 6]: 0.0% and −0.5% and −0.6% (2×) and 0.2% and −1.1% and −0.9% and −1.9% and −1.0%
Ending weight ([1]; individual subject, 0.9 mg/m^2 cohort, prior to second dose three or four days after first dose): 107.9 kg and 105 kg and 118 kg and 96.2 kg and 95.7 kg and 100.4 kg and 103.7 kg and 100.5 kg and 107.5 kg
dose per kg of excess body weight to be exceeded to see effects ([1]; obese patients, twice weekly): > 40 μg of drug per kg of excess body weight
number of patients showing greater than 3-4 percent body weight loss ([1]; of the 9 subjects at 0.9 mg/m^2, twice weekly, over 26 days of exposure): 7
duration of weight reduction after single administration ([1]; single administration of 0.9 mg/m2 dose): 4 days
Visual Analog Scale hunger decline [2]: about 50%
Visual Analog Scale hunger decline ([2]; listed as 6-O-(4-dimethylaminoethoxy)cinnamoyl fumagillol): approximately 50%
drug exposure at 24 hours post dose associated with weight loss [3]: above 0.02 ng/mL
AUC (0-24 hr) measured range ([3]; iv, 0.9 mg/m2): 8.57 to 13.6 ng·h/mL
T1/2 (H) λz (terminal) ([3]; iv, 0.9 mg/m2): 5.41±2.82 H
average AUC (0-24 hr) ([3]; iv, 0.9 mg/m2): 10.5 ng·h/mL
average AUC (0-∞) ([3]; iv, 0.9 mg/m2): 11 ng·h/mL
average Cmax ([3]; iv, 0.9 mg/m2): 2.1 ng/mL
terminal half life ([3]; iv, 0.9 mg/m2): 5.4 h
increase of adiponectin concentrations (adiponectin): over 60%
Clinical Chemistry findings (Sprague-Dawley male rats; rat, 1 mg/kg Q3D): No findings
Hematology findings (Sprague-Dawley male rats; rat, 1 mg/kg Q3D): No findings
Macroscopic findings (Sprague-Dawley male rats; rat, 1 mg/kg Q3D): No findings
Microscopic findings (Sprague-Dawley male rats; rat, 1 mg/kg Q3D): No findings
Organ weight findings (Sprague-Dawley male rats; rat, 1 mg/kg Q3D): No findings
Clinical Chemistry: Higher albumin/globulin (Sprague-Dawley male rats; rat, 1 mg/kg/day): Higher albumin/globulin (1.12X)
Clinical Chemistry: Higher potassium (Sprague-Dawley male rats; rat, 1 mg/kg/day): Higher potassium (1.2X)
Clinical Chemistry: Reduced Inorg phosphate (Sprague-Dawley male rats; rat, 1 mg/kg/day): Reduced Inorg phosphate (0.96 X)
Clinical Chemistry: Reduced alk phos (Sprague-Dawley male rats; rat, 1 mg/kg/day): Reduced alk phos (0.72X)
Hematology findings (Sprague-Dawley male rats; rat, 1 mg/kg/day): Reduced blood cell counts
Hematology: Basophil (Sprague-Dawley male rats; rat, 1 mg/kg/day): 0.55 X
Hematology: Eosinophil (Sprague-Dawley male rats; rat, 1 mg/kg/day): 0.75 X
Hematology: Large unstained cell (Sprague-Dawley male rats; rat, 1 mg/kg/day): (0.67X)
Hematology: Lymphocyte (Sprague-Dawley male rats; rat, 1 mg/kg/day): 0.65 X
Hematology: Monocyte (Sprague-Dawley male rats; rat, 1 mg/kg/day): 0.79 X
Hematology: Neutrophil (Sprague-Dawley male rats; rat, 1 mg/kg/day): 0.83 X
Hematology: WBC (Sprague-Dawley male rats; rat, 1 mg/kg/day): 0.68 X
Macroscopic findings (Sprague-Dawley male rats; rat, 1 mg/kg/day): Smaller testes and epididymides
Microscopic findings, lymph node (Sprague-Dawley male rats; rat, 1 mg/kg/day): Lymph node atrophy
Microscopic: Germ cell depletion/degeneration (incidence) (Sprague-Dawley male rats; rat, 1 mg/kg/day): Germ cell depletion/degeneration 9/10
Organ weight: Adrenal (Sprague-Dawley male rats; rat, 1 mg/kg/day): (1.24X)
Organ weight: Brain (Sprague-Dawley male rats; rat, 1 mg/kg/day): 1.15 X
Organ weight: Epididymides (Sprague-Dawley male rats; rat, 1 mg/kg/day): 0.88 X
Organ weight: Liver (Sprague-Dawley male rats; rat, 1 mg/kg/day): 0.85 X
Organ weight: Prostate (Sprague-Dawley male rats; rat, 1 mg/kg/day): 0.83 X
Organ weight: Salivary gland (Sprague-Dawley male rats; rat, 1 mg/kg/day): 0.87 X
Organ weight: Seminal vesicle (Sprague-Dawley male rats; rat, 1 mg/kg/day): 0.79 X
Organ weight: Spleen (Sprague-Dawley male rats; rat, 1 mg/kg/day): 0.71 X
Organ weight: Testes (Sprague-Dawley male rats; rat, 1 mg/kg/day): 0.83 X
Organ weight: Thymus (Sprague-Dawley male rats; rat, 1 mg/kg/day): 0.86 X
Organ weight: Thyroid (Sprague-Dawley male rats; rat, 1 mg/kg/day): 0.82 X
overall findings (Sprague-Dawley male rats; rat, 1 mg/kg/day): adverse findings (e.g. blood dyscrasias and/or irreversible testis lesions)
Clinical Chemistry: Higher albumin/globulin (Sprague-Dawley male rats; rat, 3 mg/kg Q3D): (1.09X)
Hematology findings (Sprague-Dawley male rats; rat, 3 mg/kg Q3D): No findings
Macroscopic findings (Sprague-Dawley male rats; rat, 3 mg/kg Q3D): No findings
Microscopic findings (Sprague-Dawley male rats; rat, 3 mg/kg Q3D): No findings
Organ weight findings (Sprague-Dawley male rats; rat, 3 mg/kg Q3D): No findings
animal weight (Sprague-Dawley male rats; rat, 3 mg/kg every three days): reduces animal weight significantly
overall findings (Sprague-Dawley male rats; rat, 3 mg/kg every three days): does not show any significant adverse findings
Epididymides absolute weight (Sprague-Dawley male rats; [7]): 1.130 g
Prostate absolute weight (Sprague-Dawley male rats; [7]): 0.546 g
Seminal Vesicles absolute weight (g) (Sprague-Dawley male rats; [7]): 1.201** g
Testes absolute weight (g) (Sprague-Dawley male rats; [7]): 2.569* g
Thymus absolute weight (Sprague-Dawley male rats; [7]): 0.343 g
Epididymides absolute weight (Sprague-Dawley male rats; [8]): 1.249 g
Prostate absolute weight (Sprague-Dawley male rats; [8]): 0.710 g
Seminal Vesicles absolute weight (Sprague-Dawley male rats; [8]): 1.523 g
Testes absolute weight (Sprague-Dawley male rats; [8]): 3.097 g
Thymus absolute weight (Sprague-Dawley male rats; [8]): 0.421 g
Epididymides absolute weight (Sprague-Dawley male rats; [9]): 1.267 g
Prostate absolute weight (Sprague-Dawley male rats; [9]): 0.663 g
Testes absolute weight (Sprague-Dawley male rats; [9]): 3.273 g
Thymus absolute weight (Sprague-Dawley male rats; [9]): 0.423 g
tissue weight effects (testes and seminal vesicle weights) (Sprague-Dawley male rats; rats administered with less frequent dosing (every third day)): no tissue weight effects
injection site tolerability [4]: acceptable

From patent US8980946B2, “Treatment of obesity using non-daily administration of 6-O-(4-dimethylaminoethoxy) cinnamoyl fumagillol” (Zafgen, Inc., priority 2010, dated 2015)
